Data as given in ChEMBL document CHEMBL5113528 (J Med Chem, 2022).

Columns and labels:
[1] = molecular target: T1, N-terminal Xaa-Pro-Lys N-methyltransferase 1 (Homo sapiens, UniProt Q9BV86); assay: Inhibition of full length NTMT1 (1 to 222 residues) (unknown origin) expressed in Escherichia coli BL21 (DE3) using GPKRIA as substrate preincubated for 10 mins followed by substrate addition measured after 15 mins by microplate reader method
T1 sequence (Q9BV86 whole entry): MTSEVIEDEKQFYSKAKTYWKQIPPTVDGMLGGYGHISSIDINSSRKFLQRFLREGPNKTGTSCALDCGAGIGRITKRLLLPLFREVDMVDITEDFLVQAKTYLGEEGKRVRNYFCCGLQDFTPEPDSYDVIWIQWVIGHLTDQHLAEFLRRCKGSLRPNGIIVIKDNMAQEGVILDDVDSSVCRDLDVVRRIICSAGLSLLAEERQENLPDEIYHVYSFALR

[2] = molecular target: T1, N-terminal Xaa-Pro-Lys N-methyltransferase 1
Description: Binding affinity to NTMT1 (unknown origin) assessed as dissociation constant in presence of SAM by isothermal titration calorimetry analysis

[3] = molecular target: T1, N-terminal Xaa-Pro-Lys N-methyltransferase 1; remark: listed apart in the source
Description: Binding affinity to NTMT1 (unknown origin)assessed as dissociation constant in absence of SAM by isothermal titration calorimetry analysis

[4] = molecular target: T1, N-terminal Xaa-Pro-Lys N-methyltransferase 1; assay: Inhibition of full length His-NTMT1 (1 to 222 residues) (unknown origin) expressed in Escherichia coli BL21 (DE3) assessed as SAH production by Mtase-glo luminescence assay

In the case of CC(C)OC(=O)NC(C)(C)c1csc(-c2ccc(F)cc2)n1, the IC50 [1] is reported as over 100000 nM.

Cc1ccc(-c2nc(C(C)(C)NC(=O)O[C@@H]3CN4CCC3CC4)cs2)cc1 was tested, and the IC50 [1] was 1700 nM.

CC(C)(NC(=O)O[C@@H]1CN2CCC1CC2)c1csc(-c2ccc(/C=C/C(=O)O)cc2)n1 was tested, and the IC50 [1] was over 100000 nM.

CC(C)(NC(=O)O[C@@H]1CN2CCC1CC2)c1csc(-c2ccccc2)n1 showed an IC50 [1] of 2700 nM.

For CC(C)(NC(=O)O[C@@H]1CN2CCC1CC2)c1csc(-c2ccc(F)cc2)n1, the Kd [2] was 32.5 nM and the Kd [3] was 160 nM.

Compound CC(C)(NC(=O)O[C@@H]1CN2CCC1CC2)c1csc(-c2ccc(CCC(=O)O)cc2)n1 has an IC50 [1] of over 100000 nM.

Compound CC(C)(NC(=O)O[C@@H]1CN2CCC1CC2)c1csc(-c2ccc(Br)cc2)n1 has an IC50 [1] of 1500 nM.

In the case of C/N=c1\nc(-c2ccccc2)n(-c2ccccc2)s1, the IC50 [4] is reported as 460 nM.

Work on Cc1nc(C(C)(C)NC(=O)O[C@@H]2CN3CCC2CC3)cs1 yielded an IC50 [1] of over 100000 nM.

CC(C)(NC(=O)OC1CCCCC1)c1csc(-c2ccc(F)cc2)n1 gave an IC50 [1] of over 100000 nM.
